# PMC12186257, “Serendipitous and Systematic Chemoproteomic Discovery of MBLAC2, HINT1, and NME1‑4 Inhibitors from Histone Deacetylase-Targeting Pharmacophores” (ACS Chemical Biology, 2025)
# Target: T1, MERTK (Homo sapiens, UniProt Q12866)
# T1 construct: endogenous in cells
# T1 sequence (Q12866 21-999): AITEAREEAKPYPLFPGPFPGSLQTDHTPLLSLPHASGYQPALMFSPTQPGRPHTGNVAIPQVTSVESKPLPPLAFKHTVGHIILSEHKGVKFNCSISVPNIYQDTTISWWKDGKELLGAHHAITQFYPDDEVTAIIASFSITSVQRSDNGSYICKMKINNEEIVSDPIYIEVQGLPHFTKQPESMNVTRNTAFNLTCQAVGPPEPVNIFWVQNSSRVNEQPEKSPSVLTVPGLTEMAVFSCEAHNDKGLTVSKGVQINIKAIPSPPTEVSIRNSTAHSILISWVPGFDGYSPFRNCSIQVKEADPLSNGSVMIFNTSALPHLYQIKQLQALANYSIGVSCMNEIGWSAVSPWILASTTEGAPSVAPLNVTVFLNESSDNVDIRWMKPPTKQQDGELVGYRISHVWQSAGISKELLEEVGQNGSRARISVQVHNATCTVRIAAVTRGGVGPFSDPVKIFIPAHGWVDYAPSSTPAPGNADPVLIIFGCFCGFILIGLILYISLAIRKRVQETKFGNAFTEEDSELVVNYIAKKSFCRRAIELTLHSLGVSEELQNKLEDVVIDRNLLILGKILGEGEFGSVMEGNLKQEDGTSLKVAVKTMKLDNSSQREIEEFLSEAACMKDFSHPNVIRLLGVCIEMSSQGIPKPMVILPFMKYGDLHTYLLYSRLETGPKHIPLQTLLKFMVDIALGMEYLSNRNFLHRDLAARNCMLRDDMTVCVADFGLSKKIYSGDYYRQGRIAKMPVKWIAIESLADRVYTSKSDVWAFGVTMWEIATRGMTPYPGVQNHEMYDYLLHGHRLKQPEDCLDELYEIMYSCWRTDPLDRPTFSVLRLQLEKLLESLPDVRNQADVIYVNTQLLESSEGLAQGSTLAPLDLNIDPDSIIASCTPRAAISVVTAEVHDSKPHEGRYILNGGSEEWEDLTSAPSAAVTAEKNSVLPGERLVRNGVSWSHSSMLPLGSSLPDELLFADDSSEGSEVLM
# Test: Kinobead competition assay
# Type: binding
# Details: only kinase among >190
# Excerpt: The binding of KV-24 and KV-30 to the nucleotide-binding pocket raises the question of whether these compounds also target other nucleotide-binding proteins, such as kinases. To evaluate potential off-target effects, we performed Kinobead competition assays. This chemoproteomic approach is conceptually very similar to the one used here in that broad spectrum kinase inhibitors are immobilized on beads. […] PDE1C is a cAMP/cGMP nucleotide-binding protein that features two divalent metal cation cofactors. The hydroxamic acid moiety of KV-24 might chelate these metal cofactors, supporting the hypothesis that KV-24 binds the active site of PDE1C. […] With the help of our chemoproteomic platform, future structure–activity relationship (SAR) libraries based on the KV-24 and KV-30 scaffolds may be explored to improve selectivity toward either HINT1, kinase targets, or PDE1C. […]
# LC-MS/MS. The different sample types were measured with different LC-MS/MS settings. MBLAC2 2-dose competition assays were measured with the Lumos1 setup, MBLAC2 9-dose competition assays were measured with the Lumos2 setup, and kinobeads assays were measured with the Eclipse setup.
# Peptides were analyzed via LC–MS/MS on a Dionex Ultimate3000 nano HPLC coupled to either one of two Orbitrap Fusion Lumos mass spectrometers, or to an Orbitrap Eclipse mass spectrometer, operated via the Thermo Scientific Xcalibur software. […]
compound,measurement,value
O=C(NO)c1ccc(-c2nc3ccccc3c3ccccc23)cc1 [KV-30],MERTK binding,potential binding
